Reference: patent US20010051636A1, “Combination treatment for inhibiting bone loss” (priority 1994, published 2001)
Marks after values point to notes of the source that are not given here.

Experiments:
Type in all cases: in vivo
[1] = test system: ovariectomized (ovex) rats; experiment: 5-week ovex rat model of post-menopausal osteoporosis: femur density by X-ray grey scale image analysis; conditions: for anti-resorptive activity (in words): 0.1 mg/kg, each compound separately; for RANGE 0-60 (relative density of bone, femur X-ray grey scale): Table 3
Procedure: In the following, a model of post-menopausal osteoporosis was used in which effects of different treatments upon femur density were determined.
Seventy-five day old female Sprague Dawley rats (weight range of 225 to 275 g) were obtained from Charles River Laboratories (Portage, Mich.). They were housed in groups of 3 and had ad libitum access to food (calcium content approximately 1%) and water. Room temperature was maintained at 22.2°±1.7° C. with a minimum relative humidity of 40%. The photoperiod in the room was 12 hours light and 12 hours dark.
One week after arrival, the rats underwent bilateral ovariectomy under anesthesia (44 mg/kg Ketamine and 5 mg/kg Xylazine (Butler, Indianapolis, Ind.) administered intramuscularly). Treatment with vehicle or the indicated compound was initiated either on the day of surgery following recovery from anesthesia or 35 days following the surgery.
Oral dosage was by gavage in 0.5 mL of 1% carboxymethylcellulose (CMC).
(§1) Body weight was determined at the time of surgery and weekly during the study, and the dosage was adjusted with changes in body weight. Vehicle-treated ovariectomized (ovex) rats and non-ovariectomized (intact) rats were evaluated in parallel with each experimental group to serve as negative and positive controls.
(§2) The rats were treated daily for 35 days (6 rats per treatment group) and sacrificed by decapitation on the 36th day. […] At the time of sacrifice, the uteri were removed, dissected free of extraneous tissue, and the fluid contents were expelled before determination of wet weight in order to confirm estrogen deficiency associated with complete ovariectomy. […] The uteri were then placed in 10% neutral buffered formalin to allow for subsequent histological analysis.
The right femurs are excised and scanned at the distal metaphysis proximal from the growth plate region by grey scale image analysis of digitalized X-ray generation on a Nicolet NXR-1200 real time X-ray imaging system.

[2] = Body weight change in the ovex rat study BBA-9311
Procedure: as §1

[3] = test system: ovariectomized (ovex) rats; experiment: Uterine wet weight in the ovex rat study BBA-9311
Procedure: as §2

[4] = Table 1, 1 mg/kg PO CDX, 47KV/4.5C, 35 days

SMILES	anti-resorptive activity (in words) [1]	Ave BW Chg ([2]; Table 4 BBA-9311, 1 mg/kg)	Ave BW Chg ([2]; Table 4 BBA-9311, .1 mg/kg)	Ave Ut Wt ([3]; Table 4 BBA-9311, 1 mg/kg)	Ave Ut Wt ([3]; Table 4 BBA-9311, .1 mg/kg)	RANGE 0-50 (relative density of bone, femur X-ray grey scale) [1, 4]	also measured
NCCCC(O)(P(=O)(O)O)P(=O)(O)O [ALN, Alendronate]	inactive	106.000	102.167	108.667	100.833	–	–
C#C[C@]1(O)CC[C@H]2[C@@H]3CCc4cc(O)ccc4[C@H]3CC[C@@]21C [EE2, ethynylestradiol]	–	–	–	–	–	–	RANGE 0-50 (relative density of bone, femur X-ray grey scale) ([1]; Table 1, 100 μg/kg PO CDX): 51.29*; RANGE 0-50 (relative density of bone, femur X-ray grey scale) ([1]; Table 2, 30 μg/kg PO CDX): 50.87; RANGE 0-50 (relative density of bone, femur X-ray grey scale) ([1]; Table 2, 100 μg/kg PO CDX): 61.09*; RANGE 0-60 (relative density of bone, femur X-ray grey scale) ([1]; 100 μg/kg PO CDX): 62.88*; Ave BW Chg ([2]; Table 4, 100 μg/kg): 49.000; Ave Ut Wt ([3]; Table 4, 100 μg/kg): 399.000
CC(=O)O[C@]1(C(C)=O)CC[C@H]2[C@@H]3C[C@H](C)C4=CC(=O)CC[C@]4(C)[C@H]3CC[C@@]21C [Provera]	–	–	–	–	–	30.10	protection from bone loss (in words) ([1]; 10 mg/kg, by itself): protective effect; RANGE 0-50 (relative density of bone, femur X-ray grey scale) ([1]; Table 1, 10 mgmg/kg PO CDX, 47KV/4.5C, 35 days): 64.16*
Cl.O=C(c1ccc(OCCN2CCCCC2)cc1)c1c(-c2ccc(O)cc2)sc2cc(O)ccc12 [RAL, [6-hydroxy-2-(4-hydroxyphenyl)benzo[b]thien-3-yl][4-[2-(1-piperidinyl)ethoxy]phenyl]methanone hydrochloride]	inactive	49.667	75.833	166.000	157.667	57.67*	RANGE 0-50 (relative density of bone, femur X-ray grey scale) ([1]; Table 2, 1 mg/kg PO CDX): 80.98*; RANGE 0-60 (relative density of bone, femur X-ray grey scale) ([1]; 0.1 mg/kg PO CDX, 47KV/4.5C): 36.76; RANGE 0-60 (relative density of bone, femur X-ray grey scale) ([1]; 1 mg/kg PO CDX): 40.37
